This is an account of results in BindingDB's records for doi:10.1021/acs.jnatprod.4c00082 (Johannes Gutenberg-University, 2024).

The assay deals with T1, Signal transducer and activator of transcription 6 (Homo sapiens, UniProt P42226).
T1 sequence (P42226 whole entry): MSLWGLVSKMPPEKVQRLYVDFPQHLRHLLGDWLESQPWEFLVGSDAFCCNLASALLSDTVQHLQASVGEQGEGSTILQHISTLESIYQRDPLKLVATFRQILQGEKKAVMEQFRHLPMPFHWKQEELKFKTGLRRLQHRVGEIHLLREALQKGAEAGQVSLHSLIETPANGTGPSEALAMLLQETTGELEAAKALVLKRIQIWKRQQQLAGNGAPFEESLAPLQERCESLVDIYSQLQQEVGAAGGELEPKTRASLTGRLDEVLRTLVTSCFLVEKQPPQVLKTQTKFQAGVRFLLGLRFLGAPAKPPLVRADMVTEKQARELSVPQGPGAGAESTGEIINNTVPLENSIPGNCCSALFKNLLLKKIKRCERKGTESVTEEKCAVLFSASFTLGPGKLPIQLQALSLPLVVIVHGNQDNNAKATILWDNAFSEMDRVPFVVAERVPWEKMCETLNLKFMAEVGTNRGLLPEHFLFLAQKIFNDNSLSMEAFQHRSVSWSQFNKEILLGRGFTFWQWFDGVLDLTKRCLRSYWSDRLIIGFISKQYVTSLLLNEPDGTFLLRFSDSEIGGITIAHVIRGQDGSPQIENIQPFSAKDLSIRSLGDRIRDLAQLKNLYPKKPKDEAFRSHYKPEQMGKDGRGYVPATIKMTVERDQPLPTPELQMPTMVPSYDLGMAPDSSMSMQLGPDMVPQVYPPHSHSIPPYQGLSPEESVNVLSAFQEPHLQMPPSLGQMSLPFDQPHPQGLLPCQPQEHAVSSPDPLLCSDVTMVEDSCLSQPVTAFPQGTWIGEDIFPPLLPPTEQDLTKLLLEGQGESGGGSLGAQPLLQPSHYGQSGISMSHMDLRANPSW
The experiment in a line: Inhibition of IL-4 induced STAT6 signaling in human HepG2 cells harboring pRL-EF1alpha, pGL3-TK-7xN4 and TOPO-Stat6 plasmid assessed as luciferase activity incubated for 24 hrs.

Usually IC50 stands for the point on the concentration scale where inhibition reaches its midpoint. `C/C1=C\C[C@H](O)[C@H](C)[C@H](C)OC(=O)Cc2c(Cl)c(O)cc(O)c2C1=O`: the IC50 is 200 nM.

For `C/C1=C\C[C@@H](O)[C@H](C)[C@H](C)OC(=O)Cc2c(Cl)c(O)cc(O)c2C1=O`, the IC50 stood at 1000 nM.

For the compound `C/C1=C/C[C@@H](O)[C@H](C)[C@@H](C)OC(=O)Cc2c(Cl)c(O)cc(O)c2C1=O`, the IC50 turned out to be 72 nM.

With `C/C1=C\C[C@H](O)[C@H](C)[C@@H](C)OC(=O)Cc2c(Cl)c(O)cc(O)c2C1=O`, the IC50 came out at 50 nM.

Regarding `C/C1=C/C[C@H](O)[C@H](C)[C@@H](C)OC(=O)Cc2c(Cl)c(O)cc(O)c2C1=O`, the IC50 was 64 nM.
